Experimental data taken from patent publication US20110269130A1, “Antibiotice Susceptibility Profiling Methods” (priority 2008, published 2011).

Legend:
[1] = system: S. aureus ATCC 29213 (wild type); experiment: PNA-FISH antibiotic susceptibility test, wild type S. aureus; format: cell-based; settings: OX 2 μg/mL and higher (2, 4, 8 μg), 6 hr incubation in Phoenix AST broth, 10^5 CFU/ml, PNA-FISH fluorescence imaging
Experimental: (§1) S. aureus ATCC 29213 and S. aureus POS 3663 cultures with a concentration of 10^5CFU/ml were divided into six 400 μl subsamples and incubated with or without OX antibiotic for 0 or 6 hours in Phoenix AST broth as indicated in the following table.
(§2) Each subsample was placed into separate 1.5 mL microcentrifuge tubes following incubation. The tubes were centrifuged at 5000 rpm for 3 minutes and the supernatants were discarded. The bacteria were resuspended in […] of 80% ethanol and incubated for 5 minutes at room temperature and then centrifuged at 5000 rpm for 3 minutes. The supernatants were discarded and the bacteria were resuspended in one drop (approximately 25 μL) of the S. aureus-specific PNA-probe solution from the PNA FISH Kit and incubated for 1.5 hours at 55° C. After hybridization, 500 μL of the washing solution from the PNA FISH Kit was added and the tubes were incubated at 55° C. for 30 minutes. The tubes were centrifuged 10,000 rpm for 3 minutes and the supernatants were discarded. The bacterial pellets were resuspended in 150 μL PBS, and 40 μL of each subsample was transferred onto a 0.2 μm pore-size polycarbonate membrane using a flow-through device. The membrane was then transferred to a glass slide and covered with a cover slip. The membrane was then imaged using a fluorescence microscope.

[2] = system: S. aureus POS 3663 (MRSA); experiment: PNA-FISH antibiotic susceptibility test, MRSA; format: cell-based; settings: OX at concentrations as high as 8 μg/mL, 6 hr incubation in Phoenix AST broth, 10^5 CFU/ml, PNA-FISH fluorescence imaging
Experimental: as §1, §2

Cc1onc(-c2ccccc2)c1C(=O)N[C@@H]1C(=O)N2[C@@H]1SC(C)(C)[C@@H]2C(=O)O [oxacillin]
effect of oxacillin (OX) on the growth of wild type S. aureus ATCC 29213 [1]: killed the bacteria | effect of oxacillin (OX) on the growth of wild type S. aureus ATCC 29213 ([1]; listed as OX): most of the wild type S. aureus were killed | effect of oxacillin (OX) on the growth of resistant S. aureus POS 3663 [2]: had no effect on the growth | effect of oxacillin (OX) on the growth of resistant S. aureus POS 3663 ([2]; listed as OX): continues to grow
